Source: patent US20050282159A1, “Rpob gene of streptomyces, primer specific to streptomyces, and identification method of streptomyces having rifampin resistance or sensitivity by using the same” (priority 2001, published 2005)

Assays:
[1] = tested on: S. alboviridis KCTC 9750; assay: rifampin-sensitive test on Bennet solid media; assay type: cell-based; parameters: key to genotype (rifampin-resistance or susceptibility): “(+)” indicates a genotype with rifampin-resistance; “(−)” indicates a genotype with rifampin-susceptibility
Method: (§1) The 47 strains were respectively cultured at 28° C. for 72 hr in Bennet liquid media. The culture solution was then inoculated on Bennet solid media (yeast extract 1 g/L, Beef extract 1 g/L, Tryptone 2 g/L, Glycerol 10 g/L, Agar 15 g/L) containing 25 ug/ml rifampin, and after incubation for 72 hr, rifampin-resistance was tested.

[2] = tested on: S. cinerous KCTC 9066; assay: rifampin-sensitive test on Bennet solid media; assay type: cell-based; parameters: key to genotype (rifampin-resistance or susceptibility): “(+)” indicates a genotype with rifampin-resistance; “(−)” indicates a genotype with rifampin-susceptibility
Method: as §1

[3] = tested on: 60 strains; assay: rifampin genotype by rpoB nucleotide sequence analysis (summary); parameters: species or system Streptomyces; details: the other 41 strains with TCG or TCC at the 352nd position
Method: (§2) The primer sets of SEQ ID NOs: 1 and 2 were used to amplify rpoB genes of 60 strains, and nucleotides of the […] products were analyzed with an automatic sequencer. SRPOF1 as a forward primer and SRPOR1 as a backward primer were used.

[4] = tested on: 47 strains of Streptomyces references; assay: rifampin-sensitive test on Bennet solid media (summary); assay type: cell-based; details: 25 ug/ml rifampin, 72 hr
Method: A total of 47 strains of Streptomyces references including 24 reference strains having AAC encoding Asp and 23 reference strains having TCG or TCC encoding Ser at the sequenced positions were used, and 306-bI rpoB nucleotide sequences of the […] strains are shown in SEQUENCE LISTING.
as §1

[5] = tested on: S. anabdii KCTC 9687; assay: rifampin genotype by rpoB nucleotide sequence analysis; details: TCG (TCC) genotype
Method: as §2

[6] = tested on: S. coralus KCCM 40642; assay: as above; details: TCG (TCC) genotype
Method: as §2

[7] = tested on: S. caseius KCCM 40740; assay: as above; details: TCG (TCC) genotype
Method: as §2

[8] = tested on: S. aculeolatus KCTC 9680; assay: rifampin-sensitive test on Bennet solid media; assay type: cell-based; parameters: key: “(+)” indicates a genotype with rifampin-resistance; “(−)” indicates a genotype with rifampin-susceptibility; details: AAC genotype, 25 ug/ml rifampin, 72 hr
Method: as §1

[9] = tested on: S. albofaciens KCTC 9747; assay: rifampin-sensitive test on Bennet solid media; assay type: cell-based; parameters: key: “(+)” indicates a genotype with rifampin-resistance; “(−)” indicates a genotype with rifampin-susceptibility; details: TCG (TCC) genotype, 25 ug/ml rifampin, 72 hr
Method: as §1

[10] = tested on: S. albireticuli KCTC 9685; assay: rifampin-sensitive test on Bennet solid media; assay type: cell-based; parameters: key: “(+)” indicates a genotype with rifampin-resistance; “(−)” indicates a genotype with rifampin-susceptibility; details: TCG (TCC) genotype, 25 ug/ml rifampin, 72 hr
Method: as §1

[11] = tested on: S. durhamensis KCTC 9723; assay: rifampin-sensitive test on Bennet solid media; assay type: cell-based; parameters: key: “(+)” indicates a genotype with rifampin-resistance; “(−)” indicates a genotype with rifampin-susceptibility; details: AAC genotype, 25 ug/ml rifampin, 72 hr
Method: as §1

[12] = tested on: S. catenulae KCTC 9223; assay: rifampin-sensitive test on Bennet solid media; assay type: cell-based; parameters: key: “(+)” indicates a genotype with rifampin-resistance; “(−)” indicates a genotype with rifampin-susceptibility; details: TCG (TCC) genotype, 25 ug/ml rifampin, 72 hr
Method: as §1

[13] = tested on: S. antimycoticus KCTC 9694; assay: rifampin-sensitive test on Bennet solid media; assay type: cell-based; parameters: key: “(+)” indicates a genotype with rifampin-resistance; “(−)” indicates a genotype with rifampin-susceptibility; details: TCG (TCC) genotype, 25 ug/ml rifampin, 72 hr
Method: as §1

[14] = tested on: S. abikoensis KCTC 9662; assay: rifampin-sensitive test on Bennet solid media; assay type: cell-based; parameters: key: “(+)” indicates a genotype with rifampin-resistance; “(−)” indicates a genotype with rifampin-susceptibility; details: TCG (TCC) genotype, 25 ug/ml rifampin, 72 hr
Method: as §1

[15] = tested on: S. albus KCTC 1082; assay: rifampin-sensitive test on Bennet solid media; assay type: cell-based; parameters: key: “(+)” indicates a genotype with rifampin-resistance; “(−)” indicates a genotype with rifampin-susceptibility; details: AAC genotype, 25 ug/ml rifampin, 72 hr
Method: as §1

[16] = tested on: S. griseus griseus KCTC 9080; assay: rifampin-sensitive test on Bennet solid media; assay type: cell-based; parameters: key: “(+)” indicates a genotype with rifampin-resistance; “(−)” indicates a genotype with rifampin-susceptibility; details: AAC genotype, 25 ug/ml rifampin, 72 hr
Method: as §1

[17] = tested on: S. cinnamonensis KCTC 9708; assay: rifampin-sensitive test on Bennet solid media; assay type: cell-based; parameters: key: “(+)” indicates a genotype with rifampin-resistance; “(−)” indicates a genotype with rifampin-susceptibility; details: TCG (TCC) genotype, 25 ug/ml rifampin, 72 hr
Method: as §1

[18] = tested on: S. celluloflavus KCTC 9702; assay: rifampin-sensitive test on Bennet solid media; assay type: cell-based; parameters: key: “(+)” indicates a genotype with rifampin-resistance; “(−)” indicates a genotype with rifampin-susceptibility; details: TCG (TCC) genotype, 25 ug/ml rifampin, 72 hr
Method: as §1

[19] = tested on: S. spectabilis KCTC 9218; assay: rifampin-sensitive test on Bennet solid media; assay type: cell-based; parameters: key: “(+)” indicates a genotype with rifampin-resistance; “(−)” indicates a genotype with rifampin-susceptibility; details: AAC genotype, 25 ug/ml rifampin, 72 hr
Method: as §1

[20] = tested on: S. actuosus KCTC 9112; assay: rifampin-sensitive test on Bennet solid media; assay type: cell-based; parameters: key: “(+)” indicates a genotype with rifampin-resistance; “(−)” indicates a genotype with rifampin-susceptibility; details: TCG (TCC) genotype, 25 ug/ml rifampin, 72 hr
Method: as §1

[21] = tested on: S. chrysomallus KCTC 9705; assay: rifampin-sensitive test on Bennet solid media; assay type: cell-based; parameters: key: “(+)” indicates a genotype with rifampin-resistance; “(−)” indicates a genotype with rifampin-susceptibility; details: TCG (TCC) genotype, 25 ug/ml rifampin, 72 hr
Method: as §1

[22] = tested on: S. albogriseolus KCTC 9773; assay: rifampin-sensitive test on Bennet solid media; assay type: cell-based; parameters: key: “(+)” indicates a genotype with rifampin-resistance; “(−)” indicates a genotype with rifampin-susceptibility; details: AAC genotype, 25 ug/ml rifampin, 72 hr
Method: as §1

[23] = tested on: S. plicatus KCTC 9040; assay: rifampin-sensitive test on Bennet solid media; assay type: cell-based; parameters: key: “(+)” indicates a genotype with rifampin-resistance; “(−)” indicates a genotype with rifampin-susceptibility; details: AAC genotype, 25 ug/ml rifampin, 72 hr
Method: as §1

[24] = tested on: S. argenteolus KCTC 9695; assay: rifampin-sensitive test on Bennet solid media; assay type: cell-based; parameters: key: “(+)” indicates a genotype with rifampin-resistance; “(−)” indicates a genotype with rifampin-susceptibility; details: TCG (TCC) genotype, 25 ug/ml rifampin, 72 hr
Method: as §1

[25] = tested on: S. bambergiensis KCTC 9019; assay: rifampin-sensitive test on Bennet solid media; assay type: cell-based; parameters: key: “(+)” indicates a genotype with rifampin-resistance; “(−)” indicates a genotype with rifampin-susceptibility; details: TCG (TCC) genotype, 25 ug/ml rifampin, 72 hr
Method: as §1

## CO[C@H]1/C=C/O[C@@]2(C)Oc3c(C)c(O)c4c(O)c(c(/C=N/N5CCN(C)CC5)c(O)c4c3C2=O)NC(=O)/C(C)=C\C=C\[C@H](C)[C@H](O)[C@@H](C)[C@@H](O)[C@@H](C)[C@H](OC(C)=O)[C@@H]1C [rifampin]
[1]; S. alboviridis (KCTC 9750), Bennet solid media, FIG. 7 (B)
  growth in media containing rifampin: did not show growth
[1]; S. alboviridis KCTC 9750, TCG (TCC) genotype, 25 ug/ml rifampin, 72 hr
  genotype (rifampin-resistance or susceptibility): −
[2]; S. cinerous (KCTC 9066), Bennet solid media, FIG. 7 (A)
  growth in media containing rifampin: generated colonies
[2]; S. cinerous KCTC 9066, AAC genotype, 25 ug/ml rifampin, 72 hr
  genotype (rifampin-resistance or susceptibility): +
[3]
  rifampin genotype of the strains: rifampin-sensitive genotypes
[4]; all 24 strains having AAC genotypes
  rifampin resistance or sensitivity of the strains: rifampin-resistant strains
[4]; the 23 strains having TCG or TCC genotypes
  rifampin resistance or sensitivity of the strains: rifampin-sensitive strains
[5]
  genotype (rifampin-resistant or -sensitive strain): −
[6]
  genotype (rifampin-resistant or -sensitive strain): −
[7]
  genotype (rifampin-resistant or -sensitive strain): −
[8]
  genotype (rifampin-resistance or susceptibility): +
[9]
  genotype (rifampin-resistance or susceptibility): −
[10]
  genotype (rifampin-resistance or susceptibility): −
[11]
  genotype (rifampin-resistance or susceptibility): +
[12]
  genotype (rifampin-resistance or susceptibility): −
[13]
  genotype (rifampin-resistance or susceptibility): −
[14]
  genotype (rifampin-resistance or susceptibility): −
[15]
  genotype (rifampin-resistance or susceptibility): +
[16]
  genotype (rifampin-resistance or susceptibility): +
[17]
  genotype (rifampin-resistance or susceptibility): −
[18]
  genotype (rifampin-resistance or susceptibility): −
[19]
  genotype (rifampin-resistance or susceptibility): +
[20]
  genotype (rifampin-resistance or susceptibility): −
[21]
  genotype (rifampin-resistance or susceptibility): −
[22]
  genotype (rifampin-resistance or susceptibility): +
[23]
  genotype (rifampin-resistance or susceptibility): +
[24]
  genotype (rifampin-resistance or susceptibility): −
[25]
  genotype (rifampin-resistance or susceptibility): −
